Structures are written as SMILES. “And” between values parts separate entries of the source, which are not always exact repeats. Identical values can stand only once. The source made the active and inactive calls. Cut-off read from the data, not from the text of the source: active = IC50 below about 9 µM; inactive = the rest.

Consider 35 compounds from PubChem BioAssay AID2165 (The Scripps Research Institute Molecular Screening Center, 2009).

The target of this test is Tyrosine-protein kinase JAK2 (Homo sapiens) (UniProt O60674). Nature of the test: JAK2V617F project follow-up: kinase, reporter, cytotoxicity – HEL and Ba/F3 cells, late-stage follow-up (AID 2165). As to conditions: JAK2V617F panel: kinase, IRF1 reporter.
Chain of Tyrosine-protein kinase JAK2 (Homo sapiens) (O60674 whole entry, looked up, change not shown): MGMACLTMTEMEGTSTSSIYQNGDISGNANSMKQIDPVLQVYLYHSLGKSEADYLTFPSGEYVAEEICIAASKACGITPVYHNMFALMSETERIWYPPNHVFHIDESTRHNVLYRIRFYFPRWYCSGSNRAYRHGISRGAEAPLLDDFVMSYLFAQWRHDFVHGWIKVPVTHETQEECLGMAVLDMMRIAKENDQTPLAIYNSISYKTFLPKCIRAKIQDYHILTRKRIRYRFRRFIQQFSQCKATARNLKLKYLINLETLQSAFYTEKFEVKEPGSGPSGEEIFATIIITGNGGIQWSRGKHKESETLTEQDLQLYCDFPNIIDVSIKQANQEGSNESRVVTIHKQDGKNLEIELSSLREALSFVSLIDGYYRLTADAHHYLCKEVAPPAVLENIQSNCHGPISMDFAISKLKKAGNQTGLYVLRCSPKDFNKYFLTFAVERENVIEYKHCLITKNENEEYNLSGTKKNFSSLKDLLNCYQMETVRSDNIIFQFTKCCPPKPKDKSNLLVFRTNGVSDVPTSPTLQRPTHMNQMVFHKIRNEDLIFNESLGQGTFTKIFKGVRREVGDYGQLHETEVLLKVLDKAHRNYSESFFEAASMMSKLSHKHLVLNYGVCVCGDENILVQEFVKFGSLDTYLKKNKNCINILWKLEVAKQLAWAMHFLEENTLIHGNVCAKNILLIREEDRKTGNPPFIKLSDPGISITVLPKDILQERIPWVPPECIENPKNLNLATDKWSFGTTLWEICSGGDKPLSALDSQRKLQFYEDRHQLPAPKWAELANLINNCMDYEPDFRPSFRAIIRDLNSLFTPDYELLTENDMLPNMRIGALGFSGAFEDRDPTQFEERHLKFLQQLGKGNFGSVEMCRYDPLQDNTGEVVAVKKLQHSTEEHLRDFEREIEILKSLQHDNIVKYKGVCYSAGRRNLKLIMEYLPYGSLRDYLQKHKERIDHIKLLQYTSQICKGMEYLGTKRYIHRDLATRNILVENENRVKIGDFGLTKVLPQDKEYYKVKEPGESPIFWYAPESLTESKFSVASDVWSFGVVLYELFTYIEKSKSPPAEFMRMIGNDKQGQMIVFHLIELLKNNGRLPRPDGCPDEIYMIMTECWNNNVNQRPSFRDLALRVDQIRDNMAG

Regarding `Cc1ccccc1CS(=O)(=O)c1nnc([C@H](CC(C)C)NC(=O)OC(C)(C)C)o1`, the IC50 was 1.96 µM (Ba/F3, irf1 reporter) and 12.1 µM (HEL, irf1 reporter).
`COc1ccc([N+](=O)[O-])c(S(=O)(=O)c2ccc(Cl)cc2)n1`: the half-inhibitory concentration (IC50) is, setting by setting: (Ba/F3, irf1 reporter) 0.395 µM; (HEL, irf1 reporter) 10.4 µM.
Take `N#C/C(=C\c1ccc(O)c(O)c1)C(=O)NCCCCc1ccccc1`: the IC50 by setting is: (Ba/F3, irf1 reporter) 0.25 µM; (HEL, irf1 reporter) 3.31 µM; (JAK2V617F) 0.76 µM.
Turning to `CCC(C)[C@@H](NC(=O)OC(C)(C)C)c1nnc(S(=O)(=O)Cc2cccc(C)c2)o1` (stereo partly drawn), the half-maximal inhibitory concentration (IC50) runs as follows: (Ba/F3, irf1 reporter) 0.24 µM; (HEL, irf1 reporter) 21.7 µM.
Regarding `C#CCSc1nsc(SCC#C)c1C#N`, the half-maximal inhibitory concentration (IC50) by setting is: (Ba/F3, irf1 reporter) 6.71 µM; (HEL, irf1 reporter) > 40 µM (inactive).
With `COc1ccccc1N(C(=O)CCl)c1cn(C(C)=O)c2ccccc12`, the concentration for half-maximal inhibition (IC50) is 2.17 µM (Ba/F3, irf1 reporter) and 9.3 µM (HEL, irf1 reporter).
On the same counts, the results for `O=C1C=CCC(/C=C/c2ccccc2)O1` (stereo not drawn) are 7.41 µM and 2.05 µM.
Turning to `Cc1ccc(O)c(NC(=O)COc2cc(C)ccc2C)c1`, where the note is “JAK2V617F”, the IC50 is 2.23 µM.
Take `CCCc1nc2ccccc2c(=O)n1/N=C/c1ccc(O)c(O)c1`: the IC50 is 2.13 µM (Ba/F3, irf1 reporter) and 13.1 µM (HEL, irf1 reporter).
Taken in the same sequence, the figures for `COc1ccc(-n2nnnc2SCC(=O)c2ccc(O)c(O)c2)cc1` were 6.22 µM and 25.5 µM.
In the case of `Nc1nc(CCl)nc(N(c2ccccc2)c2ccccc2)n1`, the IC50 by setting is: (Ba/F3, irf1 reporter) 14.3 µM; (HEL, irf1 reporter) 2.64 µM.
Turning to `COc1ccccc1/C=C/C(=O)c1c2c(c(C)[nH]c1=O)CCCC2`, the IC50 by setting is: (Ba/F3, irf1 reporter) > 40 µM (inactive); (HEL, irf1 reporter) 1.3 µM; (JAK2V617F) 1.27 µM.
For the compound `COc1cc2ncnc(Nc3ccccc3)c2cc1OC`, the half-maximal inhibitory concentration (IC50) reads like this: (HEL, irf1 reporter) 5.92 µM; (JAK2V617F) > 40 µM (inactive).
As to `COc1cccc(N(C(=O)CCl)C(C(=O)NCCc2ccccc2)c2cccs2)c1` (stereo not drawn), the 50% inhibitory concentration (IC50) runs as follows: (Ba/F3, irf1 reporter) 2.76 µM; (HEL, irf1 reporter) 1.04 µM.
Taken in the same sequence, the figures for `O=C1/C(=C/c2ccc(O)c(O)c2)SC(=S)N1Nc1ccccc1` were 4.04 µM and 10.2 µM.
For `COc1ccc(Nc2nc(N)nc(CCl)n2)cc1`, the IC50 (Ba/F3, irf1 reporter) was > 40 µM (inactive) and the IC50 (HEL, irf1 reporter) is 3.96 µM.
As to `Cc1[nH]c(=O)c(C(=O)C=Cc2ccccc2Cl)c2c1CCCC2`, the 50% inhibitory concentration (IC50) is, setting by setting: (Ba/F3, irf1 reporter) 0.214 µM; (HEL, irf1 reporter) 0.53 µM; (JAK2V617F) 0.13 µM.
As for `COc1ccc(C=CC(=O)c2c3c(c(C)[nH]c2=O)CCCC3)cc1`, the IC50 was > 40 µM (inactive) (Ba/F3, irf1 reporter); > 40 µM (inactive) (HEL, irf1 reporter); 6.94 µM (JAK2V617F).
As to `COc1cc2ncnc(NC(C)C)c2cc1OC`, the IC50 was > 40 µM (inactive) (HEL, irf1 reporter) and > 40 µM (inactive) (JAK2V617F).
As for `COc1ccc(Nc2ccc3c(c2)=NC2(CCCCC2)[N+]=3[O-])cc1`, the IC50 was 5.6 µM (Ba/F3, irf1 reporter) and 5.14 µM (HEL, irf1 reporter).
As to `COCCOc1cc2ncnc(Nc3cccc(C#Cc4ccc(-c5ccccc5)cc4)c3)c2cc1OCCOC`, the IC50 runs as follows: (HEL, irf1 reporter) > 40 µM (inactive); (JAK2V617F) 3.81 µM.
With `Cc1ccc(O)c(NC(=O)COc2ccccc2Cl)c1`, the half-inhibitory concentration (IC50) (JAK2V617F) is 0.0247 µM.
On to `CCOc1ccc(C(=O)C(CN2CCOCC2)c2ccccc2)cc1` (stereo not drawn), for which the IC50 is 16.6 µM (Ba/F3, irf1 reporter) and 11 µM (HEL, irf1 reporter).
Take `Cc1[nH]c(=O)c(C(=O)C=Cc2ccc(Br)cc2)c2c1CCCC2`: the IC50 reads like this: (Ba/F3, irf1 reporter) 0.98 µM; (HEL, irf1 reporter) 1.03 µM; (JAK2V617F) 3.64 µM.
`Cc1cccc(OCC(=O)Nc2ccccc2F)c1`: the IC50 by setting is: (HEL, irf1 reporter) > 40 µM (inactive); (JAK2V617F) > 40 µM (inactive).
Consider `Cc1cccc(Nc2nc(N)nc(CCl)n2)c1C`, for which the IC50 was 14.9 µM (Ba/F3, irf1 reporter) and 1.17 µM (HEL, irf1 reporter).
For the compound `CCc1cccc(Nc2ncnc3cc(OCCOC)c(OCCOC)cc23)c1`, the IC50 reads like this: (HEL, irf1 reporter) > 40 µM (inactive); (JAK2V617F) > 40 µM (inactive).
For `Cc1[nH]c(=O)c(C(=O)/C=C/c2ccccc2F)c2c1CCCC2`, the 50% inhibitory concentration (IC50) was 6.42 µM and 1.07 µM (Ba/F3, irf1 reporter); 3.87 µM and 0.79 µM (HEL, irf1 reporter); 0.45 µM (JAK2V617F).
As for `O=c1cnn([C@@H]2O[C@H](CO)[C@@H](O)[C@H]2O)c(=O)[nH]1`, the IC50 (Ba/F3, irf1 reporter) is > 40 µM (inactive) and the IC50 (HEL, irf1 reporter) was > 40 µM (inactive).
As for `COc1ccccc1-c1nnc(Sc2nc([N+](=O)[O-])nn2C)o1`, the half-maximal inhibitory concentration (IC50) was 35.5 µM (Ba/F3, irf1 reporter) and 13.6 µM (HEL, irf1 reporter).
With `Cc1ccc(O)c(NC(=O)COc2ccc(Cl)cc2)c1`, under “JAK2V617F”, the IC50 is 1.51 µM.
On to `O=c1oc2ccc(Cl)cc2nc1/C=C(\O)c1ccco1`, for which the IC50 by setting is: (Ba/F3, irf1 reporter) 5.55 µM; (HEL, irf1 reporter) 4.75 µM.
Consider `Cc1cccc(OCC(=O)Nc2cccc(C)c2C)c1`, for which, where the note is “JAK2V617F”, the IC50 is > 40 µM (inactive).
With `N#CC(=Cc1ccc(O)c(O)c1)C(=S)NCc1ccccc1`, the IC50 by setting is: (Ba/F3, irf1 reporter) 0.62 µM; (HEL, irf1 reporter) > 40 µM (inactive); (JAK2V617F) 1.92 µM.
Turning to `O=C(CCl)N=c1sccn1Cc1ccccc1Cl`, the IC50 by setting is: (Ba/F3, irf1 reporter) 9.38 µM; (HEL, irf1 reporter) 1.62 µM.

What is called IC50 is the midpoint of a concentration-inhibition curve.
